Experimental data from US9452994B2, “Manufacturing process for pyrimidine derivatives” (Novartis AG, priority 2010, dated 2016).

Test: moisture uptake of solid forms at given relative humidity
Assay type: physicochemical

Work on “5-(2,6-Di-4-morpholinyl-4-pyrimidinyl)-4-trifluoromethylpyridin-2-amine hemihydrate” yielded a moisture uptake (25% relative humidity) of 1.9%.

Compound `Cl.Nc1cc(C(F)(F)F)c(-c2cc(N3CCOCC3)nc(N3CCOCC3)n2)cn1.O` [5-(2,6-Di-4-morpholinyl-4-pyrimidinyl)-4-(trifluoromethyl)pyridin-2-amine monohydrate monohydrochloride] has a moisture uptake (75% relative humidity) of 4.4% and a moisture uptake (95% relative humidity) of 4.9%.

With `Cl.Nc1cc(C(F)(F)F)c(-c2cc(N3CCOCC3)nc(N3CCOCC3)n2)cn1` [5-(2,6-Di-4-morpholinyl-4-pyrimidinyl)-4-(trifluoromethyl)pyridin-2-amine monohydrochloride] the “hygroscopicity (in words)” value was “only slightly hydroscopic” and the maximum moisture uptake (25° C., up to 92% relative humidity) was “less than 0.1%”.

Compound `Nc1cc(C(F)(F)F)c(-c2cc(N3CCOCC3)nc(N3CCOCC3)n2)cn1` [5-(2,6-Di-4-morpholinyl-4-pyrimidinyl)-4-trifluoromethylpyridin-2-amine] has a moisture uptake (85% relative humidity) of 8.9%.
